{"source": "patent US20160324876A1", "about": "“VITAMIN D AND ANTIBACTERIAL USES OF COMPOSITIONS THEREOF” (ZENSUN SCIENCE & TECHNOLOGY LIMITED, priority 2014, published 2016)", "key": {"E. coli CFT073 [1]": {"tested_on": "E. coli CFT073", "assay": "Antibacterial experiment: VD3-stimulated SV-HUC1 urethral epithelial cells co-incubated with E. coli CFT073, CFU of cell lysate", "type": "cell-based", "conditions": "SV-HUC1 cells stimulated by VD3 at different concentrations, FIG. 5", "protocol": "In this study, with the final activated form of vitamin D3, 1,25-dihydroxyvitamin D3 [1,25 (OH)2D3] as the test substance, the immortalized human urethral epithelial cells SV-HUC1 as experimental systems, the E. coli CFT073 as antibacterial target, the cells treated by 1,25 (OH) 2D3 were co-incubated with E. coli CFT073. The E. coli CFT073 colony forming units (CFU) were used to examine whether 1,25 (OH) 2D3 achieves an antibacterial effect by stimulating cell lines derived from human to secrete antimicrobial peptides in vitro.\n(§1) SV-HUC1 cells in the condition of exponential growth and about 90% confluence were digested by pancreatin (GIBCO, Cat. No. 25200-056) for 5 min. When most of the cells came off from the culture plate, complete medium was added to terminate digestion. The non-peeling cells were blown down from the culture plate by a pipette, and were transferred to a 15 ml centrifuge tube. The cells were centrifuged at 1500 rpm for three minutes. The supernatant was discarded. The cell deposit was resuspended in complete medium to ensure that the cells dispersed uniformly.\n(§2) The cell suspension was counted by hemacytometer;\nThe concentration of cell suspension was adjusted to 4×10^5/mL using F12 incomplete medium;\nEach well of 6-well plate was inoculated with 2 mL cell suspension, the total number of cells per well was 8×10^5; […]"}, "E. coli CFT073 [2]": {"tested_on": "E. coli CFT073", "assay": "Antibacterial experiment: VD3-stimulated 5637 bladder cells co-incubated with E. coli CFT073, CFU of cell lysate", "type": "cell-based", "conditions": "5637 cells stimulated by VD3 at different concentrations, FIG. 3", "protocol": "In this study, the final activated form of vitamin D, 1,25-dihydroxyvitamin D3 [1,25(OH)2D3] was the test substance, the human bladder cancer cells 5637 was used as experimental systems, the E. coli CFT073 was antibacterial target, cells treated by 1,25(OH)2D3 was co-incubated with E. coli CFT073. The E. coli CFT073 colony forming units (CFU) was used to examine whether 1,25(OH)2D3 achieved an antibacterial effect by stimulating cell lines derived from human to secrete antimicrobial peptides in vitro.\nas §1, with “5637” for “SV-HUC1”, “uniformly dispersed.” for “dispersed uniformly.”\nas §2\nThe concentration of cell suspension was adjusted to 4×10^5/mL using incomplete RPMI 1640 medium;\nEach well of 6-well plate was inoculated with 2 mL cell suspension, the total number of cells per well was 8×10^5;\n6-well plate was placed in an incubator under the condition of 37° C., 5% CO2. […]"}, "LL-37": {"tested_on": "LL-37", "assay": "ELISA of LL-37 in lysate of VD3-stimulated 5637 cells", "type": "cell-based, human", "conditions": "5637 cells stimulated with VD3 at different concentrations, FIG. 4", "protocol": "3.2 ELISA Experiments about Effect of 1,25 (OH)2D3 on LL-37 Production 3.2.1 the Procedure of Inoculation (Day1), Administration (Day2), and E. coli infection bacteria solution preparation (Day 2&3) was the same as 3.1.1, 3.1.2 and 3.1.3.\nCell lysate was obtained using the method of 3.1.4. Cell debris and bacteria were removed by 13000 rpm centrifugation for 5 min. Lysate supernatant was fetched out and LL-37 was quantified by Human LL-37 ELISA Kit (Hycult, Cat. No. HK321)."}, "E. coli O111B4": {"tested_on": "E. coli O111B4", "assay": "Antibacterial experiment: supernatant of VD3-stimulated U-937 cells co-incubated with E. coli O111B4, colony count", "type": "cell-based", "conditions": "for CFU: U937 supernatant", "protocol": "In this study, the final activated form of vitamin D, 1,25-dihydroxyvitamin D3 [1,25 (OH)2D3] was the test substance. The lymphoma U-937 cells of human tissue cell were used as experimental systems, the E. coli O111B4 was the antibacterial target. Cell supernatants treated by 1,25(OH)2D3 was co-incubated with E. coli O111B4. The E. coli O111B4 colony forming units (CFU) was used to examine whether 1,25(OH)2D3 achieved an antibacterial effect by stimulating cell lines derived from human to secrete antimicrobial peptides in vitro.\nU-937 cells in the condition of exponential growth were centrifuged (1000 rpm, 5 min);\nAfter centrifugation, the supernatant was discarded, and cell sediment was resuspended in an appropriate amount of RPMI1640 incomplete medium to make sure cells dispersed uniformly;\nThe cell suspension was counted by hemacytometer counting;\nThe concentration of cell suspension was adjusted to 1×10^5/mL using RPMI 1640 incomplete medium;\nEach well of 6-well plate was inoculated with 3 mL cell suspension, the total number of cells per well was 3×10^5;\nAccording to the label and the experimental design, 10 μL 200× test solution or vehicle of various concentrations with 0.5% (v/v) dose volume was added to each well.\nEach dose was repeated in two parallel wells, one well harvested after 24 hours, and the other well harvested after 48 hours;\nAfter administration, the 6-well plate was placed in 37° C., 5% CO2 incubator, cultured for 24 hours and 48 hours respectively.\nDay 1 afternoon, a E. coli O111B4 glycerol pipe was thawed, 10 μL glycerol bacteria was inoculated in 10 mL of LB liquid medium without any antibiotic, and was cultured on oscillator at 37° C. overnight; Day 2 morning, 200 μL cultured broth (1:100 ratio) cultured overnight was transferred to 20 mL LB liquid medium without any antibiotics and was cultured on oscillator at 37° C. until OD600 was 0.6-1.0, then the next step was antibacterial experiment (Day 3); the remaining overnight cultured broth was stored in the refrigerator at 2-8° C. until needed.\nDay 2 afternoon, 10 μL overnight cultured broth was inoculated in 10 mL LB medium without any antibiotics, and was cultured on oscillator at 37° C. overnight;\nDay 3 morning, 200 μL overnight cultured broth (1:100 ratio) was transferred to 20 mL LB medium without any antibiotics, and was cultured on oscillator at 37° C. until OD600 was 0.6-1.0, then the next step was antibacterial experiment (Day 3).\nBefore the experiment started, 1.5% agar plate (lower medium) prepared beforehand was placed at room temperature for at least one hour;\nTop agar medium (containing 0.8%/agar) was melted, and packaged. Each 1.6 mL of Top agar medium was packaged in each tube, and then the small tube was placed in 45° C. water bath to keep warm;\n10 mL E. coli bacteria of OD600 0.6-1.0 was transferred into 50 mL centrifuge tubes to centrifuge (1000 rpm×5 min); After centrifugation, the supernatant was discarded, the bacteria precipitate was resuspended by adding 10 mL PBS; the above-described bacterial suspension was diluted 1×10^5 fold in PBS dilution by multiple proportion dilution (from 10-fold); After the drug action finished (24 hours or 48 hours), U-937 cells was centrifugated (1000 rpm, 5 min). After centrifugation, the supernatant was drawn back;\nEach centrifuge tube previously added 50 μL diluted bacterial suspension (approximately 150-250 bacteria);\nBacterial suspension were added with 1.2 mL cell supernatant from each cell supernatant, and mixed;\nThe supernatant/bacterial mixture was placed on shaking table (200 rpm) at 37° C. and was incubated for 90 minutes. After incubation, the next step was plating;\nPlating: 0.8 mL of cell supernatant/broth mixture was mixed with 1.6 mL top agar medium, the mixture was plated on 1.5% agar plates, 600 uL per well in triplicate.\nSterility test: 800 uL PBS and 1.6 mL top agar medium was mixed, and plated as above. […]"}}, "data": [{"smiles": "C=C1/C(=C\\C=C2/CCC[C@]3(C)[C@@H]([C@H](C)CCCC(C)(C)O)CC[C@@H]23)C[C@@H](O)C[C@@H]1O", "note": "[VD3, 1,25-dihydroxyvitamin D3]", "values": [{"measurement": "antibacterial activity of cell lysates", "setting": "E. coli CFT073 [1]", "value": "significant antibacterial activity"}, {"measurement": "antibacterial effect (relative CFU of 5637 cell lysate vs ethanol control)", "setting": "E. coli CFT073 [2]", "value": "significant antibacterial effect"}, {"measurement": "LL-37 levels in cell lysates", "setting": "LL-37", "value": "significant dose-dependent increase"}, {"measurement": "CFU", "setting": "E. coli O111B4; High dose, VD3 10^−7M, Day 1, Serum 10%", "value": 172}, {"measurement": "CFU", "setting": "E. coli O111B4; High dose, VD3 10^−7M, Day 2, Serum 1%", "value": 112}, {"measurement": "CFU", "setting": "E. coli O111B4; High dose, VD3 10^−7M, Day 2, Serum 10%", "value": 127}, {"measurement": "CFU", "setting": "E. coli O111B4; High dose, VD3 10^−7N, Day 1, Serum 1%", "value": 108}, {"measurement": "CFU", "setting": "E. coli O111B4; Low Dose, VD3 10^−8M, Day 1, Serum 1%", "value": 102}, {"measurement": "CFU", "setting": "E. coli O111B4; Low Dose, VD3 10^−8M, Day 1, Serum 10%", "value": 112}, {"measurement": "CFU", "setting": "E. coli O111B4; Low Dose, VD3 10^−8M, Day 2, Serum 1%", "value": 93}, {"measurement": "CFU", "setting": "E. coli O111B4; Low Dose, VD3 10^−8M, Day 2, Serum 10%", "value": 97}, {"measurement": "antibacterial effect of supernatant solution", "setting": "E. coli O111B4; U937 cells stimulated by different concentrations of VD3", "value": "significant antibacterial effect"}]}, {"smiles": "CC1(C)S[C@@H]2[C@H](NC(=O)[C@H](N)c3ccccc3)C(=O)N2[C@H]1C(=O)O", "note": "[antibiotic control group, ampicillin]", "values": [{"measurement": "colonies produced", "setting": "E. coli O111B4; antibiotics control experiment: PBS, broth, 2 uL ampicillin, top agar", "value": "no colonies produced"}]}]}
